Measurements: patent US4888417A, “Therapeutic and prophylactic agents for peptic ulcer” (Green Cross Corporation, priority 1985, dated 1989)

Tests used:
Stress Ulcer = experiment: Stress Ulcer; format: in vivo, Wister strain male rats; conditions: immediately before stress; for Ulcer Index: mean ± standard error (n=8)
Procedure: Wister strain male rats (weighing 230-250 g) were fasted for 2 days, then, while confined in a Tokyo University Pharmaceutics Laboratory model cage, they were immersed up to the xiphocosta and pulled up 6 hours later, to determine the ulcer index. That is, the rats were clubbed to death, the major axis of hemorrhagic erosion was measured, and the total was made the ulcer index. the test drug was intragastrically administered through an oral Zonde (probe) immediately before the loading of stress.
(§1) Each numeral in the table indicates the mean ± standard error (n=8)
(§2) All the test drugs (compounds of this invention) were intragastrically administered by an oral Zonde (probe).

Serotonin Induced Ulcer = experiment: Serotonin Induced Ulcer; format: in vivo, Wister strain male rats; parameters: unit not given here; conditions: 30 min before serotonin; for Ulcer Index: mean ± standard error (n=8)
Procedure: Wister strain male rats (weighing 160 to 180 g) were used after one day's fasting. Serotonin creatinine sulfate (30 mg/ml) was subcutaneously administered to the rats on the back at a rate of 1 ml per kg of the body weight. The stomach was excised 5 hours after administration of serotonin, and the total area of hemorrhagic erosion was measured as an ulcer index. The test drug was intragastrically administered to the rats through an oral Zonde (probe) 30 minutes before administration of serotonin.
as §1, §2

Ethanol Induced Ulcer = experiment: Ethanol Induced Ulcer; format: in vivo, Wister strain male rats; parameters: Rate of Inhibition: unit not given here; conditions: 30 min before ethanol; for Ulcer Index: mean ± standard error (n=8)
Procedure: Wister strain male rats (weighing 160-180 g) were fasted for one day and intragastrically administed with 50% (v/v) ethanol at a rate of 1 ml per rat. The test drug was intragastirically administered through an oral Zonde (probe) 30 minutes before administration of ethanol. One hour after administration of ethanol, the rats were poisoned to death by inhalation of chloroform, each stomach was excised, the major axis of hemorrhagic erosion on the stomach part was measured, and the total was made an ulcer index.
as §1, §2

[1] = anti-ulcer activity used as index in fractionation; conditions: single (peak) component from HPLC fractionation of cinnamon extract
Procedure: After washing with water, the resin was eluted using a 40 to 80% methanol aqueous solution as an eluent; the eluted fraction thus obtained was concentrated under reduced pressure and freeze dried to afford 148 g of a crude powder.
50 kg of cinnamon was treated with hot water at 60° to 100° C. for 1 to 2 hours, and the resultant extract was adsorbed onto 100 to 140 liters of the Amberlite XAD-2 resin. This resin was washed with water, then eluted using a 40 to 80% aqueous methanol solution as an eluent; the eluted fraction thus obtained was concentrated under reduced pressure and freeze dried to obtain 148 g of a crude powder.
200 kg of cinammon was treated with hot water at 60° to 100° C. for 1 to 2 hours, and the resultant extract was adsorbed onto 400 to 500 liters of the Amberlite XAD-2 resin. This resin was washed with water, then eluted with a 40 to 80% aqueous methanol solution as an eluent, the eluted fraction thus obtained was concentrated under reduced pressure and freeze-dried to obtain 590 g of a crude powder.

SMILES: COc1cc(O[C@@H]2O[C@H](CO[C@@H]3OC[C@](O)(CO)[C@H]3O)[C@@H](O)[C@H](O)[C@H]2O)cc(OC)c1OC [(II-1), 3,4,5-trimethoxyphenol-β-D-apiofranosyl-(1→6)-β-D-glucopyranoside]
- Rate of Inhibition (Stress Ulcer; 0.15 μg/kg intragastric): 23.7
- Ulcer Index (Stress Ulcer; 0.15 μg/kg intragastric): 21.6 ± 5.8
- Rate of Inhibition (Stress Ulcer; 0.30 μg/kg intragastric): 58.5
- Ulcer Index (Stress Ulcer; 0.30 μg/kg intragastric): 11.7 ± 3.0
- Rate of Inhibition (Serotonin Induced Ulcer; 0.15 μg/kg intragastric): 57.1
- Ulcer Index (Serotonin Induced Ulcer; 0.15 μg/kg intragastric): 7.5 ± 2.3
- Rate of Inhibition (Serotonin Induced Ulcer; 0.30 μg/kg intragastric): 70.9
- Ulcer Index (Serotonin Induced Ulcer; 0.30 μg/kg intragastric): 5.1 ± 1.9
- Rate of Inhibition (Ethanol Induced Ulcer; 0.15 μg/kg intragastric): 11.1
- Ulcer Index (Ethanol Induced Ulcer; 0.15 μg/kg intragastric): 45.3 ± 14.0
- Rate of Inhibition (Ethanol Induced Ulcer; 0.30 μg/kg intragastric): 47.1
- Ulcer Index (Ethanol Induced Ulcer; 0.30 μg/kg intragastric): 27.0 ± 7.4
- anti-ulcer activity among fractions [1]: manifesting the activity most strongly

SMILES: COc1cc(O)cc(OC)c1OC [(II-2), 3,4,5-trimethoxyphenol]
- Rate of Inhibition (Serotonin Induced Ulcer; 0.05 μg/kg intragastric): 26.7
- Ulcer Index (Serotonin Induced Ulcer; 0.05 μg/kg intragastric): 15.1 ± 4.6
- Rate of Inhibition (Serotonin Induced Ulcer; 0.15 μg/kg intragastric): 45.6
- Ulcer Index (Serotonin Induced Ulcer; 0.15 μg/kg intragastric): 11.2 ± 2.4

SMILES: CC(=O)C=C=C1C(C)(C)CC(O[C@@H]2O[C@H](CO[C@@H]3OC[C@](O)(CO)[C@H]3O)[C@@H](O)[C@H](O)[C@H]2O)CC1(C)O (stereo partly drawn) [(III-1)]
- Rate of Inhibition (Stress Ulcer; 0.075 μg/kg intragastric): 41.3
- Ulcer Index (Stress Ulcer; 0.075 μg/kg intragastric): 16.6 ± 3.2
- Rate of Inhibition (Stress Ulcer; 0.15 μg/kg intragastric): 66.8
- Ulcer Index (Stress Ulcer; 0.15 μg/kg intragastric): 9.4 ± 2.3
- Rate of Inhibition (Serotonin Induced Ulcer; 0.075 μg/kg intragastric): 2.9
- Ulcer Index (Serotonin Induced Ulcer; 0.075 μg/kg intragastric): 17.0 ± 3.1
- Rate of Inhibition (Serotonin Induced Ulcer; 0.15 μg/kg intragastric): 75.4
- Ulcer Index (Serotonin Induced Ulcer; 0.15 μg/kg intragastric): 4.3 ± 1.1
- Rate of Inhibition (Ethanol Induced Ulcer; 0.075 μg/kg intragastric): 51.6
- Ulcer Index (Ethanol Induced Ulcer; 0.075 μg/kg intragastric): 24.7 ± 10.6
- Rate of Inhibition (Ethanol Induced Ulcer; 0.15 μg/kg intragastric): 56.5
- Ulcer Index (Ethanol Induced Ulcer; 0.15 μg/kg intragastric): 22.2 ± 8.1
- anti-ulcer activity among fractions [1]: manifesting the activity most strongly

SMILES: CC1=C(/C=C/C(CO)CO)C(C)(CO[C@@H]2O[C@H](CO)[C@@H](O)[C@H](O)[C@H]2O)CCC1=O (stereo partly drawn) [(IV-1), 2,4-dimethyl-3-(4-hydroxy-3-hydroxymethyl-1-butenyl)-4-(β-D-glucopyranosyl)oxymethyl-2-cyclohexen-1-one]
- Rate of Inhibition (Serotonin Induced Ulcer; 0.1 μg/kg intragastric): 47.0
- Ulcer Index (Serotonin Induced Ulcer; 0.1 μg/kg intragastric): 7.1 ± 3.4
- Rate of Inhibition (Serotonin Induced Ulcer; 1 μg/kg intragastric): 51.5
- Ulcer Index (Serotonin Induced Ulcer; 1 μg/kg intragastric): 6.5 ± 2.5
- anti-ulcer activity among fractions [1]: manifesting the activity most strongly

SMILES: CC1=C(/C=C/C(CO)CO)C(C)(CO)CCC1=O (stereo not drawn) [(IV-2)]
- Rate of Inhibition (Serotonin Induced Ulcer; 0.06 μg/kg intragastric): 65.7
- Ulcer Index (Serotonin Induced Ulcer; 0.06 μg/kg intragastric): 4.6 ± 1.2
- Rate of Inhibition (Serotonin Induced Ulcer; 6 μg/kg intragastric): 76.9
- Ulcer Index (Serotonin Induced Ulcer; 6 μg/kg intragastric): 3.1 ± 1.2
